Structures are written as SMILES.

For this assay, the target named is T1, Corticotropin-releasing factor receptor 1 (Rattus norvegicus, UniProt P35353).
T1 sequence (P35353 whole entry): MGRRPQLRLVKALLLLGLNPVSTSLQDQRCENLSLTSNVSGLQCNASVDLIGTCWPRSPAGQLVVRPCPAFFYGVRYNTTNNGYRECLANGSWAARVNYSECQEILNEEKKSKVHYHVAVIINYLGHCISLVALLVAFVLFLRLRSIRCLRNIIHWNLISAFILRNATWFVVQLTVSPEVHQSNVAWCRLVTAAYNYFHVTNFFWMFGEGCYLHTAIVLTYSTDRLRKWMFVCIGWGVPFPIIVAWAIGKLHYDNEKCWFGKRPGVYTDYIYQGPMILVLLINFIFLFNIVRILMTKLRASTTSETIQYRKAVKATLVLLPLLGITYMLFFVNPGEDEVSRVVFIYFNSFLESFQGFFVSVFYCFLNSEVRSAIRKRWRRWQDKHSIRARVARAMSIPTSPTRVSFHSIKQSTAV
Briefly: In Vitro Binding Autoradiography. The procedure: Naive rats were sacrificed by decapitation, and the brain and pituitary were collected. Slide-mounted brain sections were preincubated in an assay solution containing [125I]oCRF for 2 h at room temperature. Concentration-related displacement of test compound was assessed by including the compound in the incubation solution. The adjacent sections were incubated under the same conditions in the presence of 1 uM alpha-helical CRF for defining nonspecific binding for CRF receptor. Nonspecific binding for CRF1 receptors was defined by 1 uM DMP696 or CP-154,526. After incubation, the sections were rinsed, dried, and then placed in cassettes against iodine-sensitive storage phosphor-imaging screens (PerkinElmer Life Sciences), and the screens were then digitally scanned with a Cyclone storage phosphor-imaging system (PerkinElmer Life Sciences). Captured storage phosphor images were analyzed with OptiQuant Acquisition and Analysis software (PerkinElmer Life Sciences).

The IC50 is the concentration at which inhibition is half-maximal. Higher therefore signals weaker potency in that assay. Molecule `CC[C@@H](C)Nc1nc(C)nc2c(-c3c(C)cc(OC)cc3OC)c(C)nn12` [Pyrazolo[1,5-a]-1,3,5-triazine, 12-16] yielded an IC50 (pH 7.2, 23 °C) of 5.7 nM.
Regarding `CCCN(CC1CC1)c1nc(C)nc2c(-c3c(C)cc(OC)cc3OC)c(C)nn12` [Pyrazolo[1,5-a]-1,3,5-triazine, 12-22], the IC50 (pH 7.2, 23 °C) is 1.48 nM.
Regarding `CCCCN(C)c1nc(C)nc2c(-c3c(C)cc(OC)cc3C)c(C)nn12` [Pyrazolo[1,5-a]-1,3,5-triazine, 12-32], for the setting “25 °C”, the IC50 stood at 4.22 nM.

The values are drawn from BindingDB's records for doi:10.1021/jm9000242 (Bristol Myers Squibb, 2009).
